Test results: ChEMBL document CHEMBL5727401, “Mixed lineage kinase inhibitors for HIV/AIDS therapies” (2019)

Molecular target: Mitogen-activated protein kinase kinase kinase 11 (Homo sapiens, UniProt Q16584)
Assay: Radiometric Filter Plate MLK3 Assay: 200 ng (130 nM) MLK3 (Dundee, DU8313) was incubated with 1 μM inactive MKK7b (Dundee, DU703) in the presence of 2 μM cold ATP (Km) and 0.5 μCi/assay 33P ATP and appropriate concentrations of compounds. After a twenty minute incubation, the reactions were washed through filter plates and read on a scintillation counter.

Mitogen-activated protein kinase kinase kinase 11, sequence (Q16584 whole entry): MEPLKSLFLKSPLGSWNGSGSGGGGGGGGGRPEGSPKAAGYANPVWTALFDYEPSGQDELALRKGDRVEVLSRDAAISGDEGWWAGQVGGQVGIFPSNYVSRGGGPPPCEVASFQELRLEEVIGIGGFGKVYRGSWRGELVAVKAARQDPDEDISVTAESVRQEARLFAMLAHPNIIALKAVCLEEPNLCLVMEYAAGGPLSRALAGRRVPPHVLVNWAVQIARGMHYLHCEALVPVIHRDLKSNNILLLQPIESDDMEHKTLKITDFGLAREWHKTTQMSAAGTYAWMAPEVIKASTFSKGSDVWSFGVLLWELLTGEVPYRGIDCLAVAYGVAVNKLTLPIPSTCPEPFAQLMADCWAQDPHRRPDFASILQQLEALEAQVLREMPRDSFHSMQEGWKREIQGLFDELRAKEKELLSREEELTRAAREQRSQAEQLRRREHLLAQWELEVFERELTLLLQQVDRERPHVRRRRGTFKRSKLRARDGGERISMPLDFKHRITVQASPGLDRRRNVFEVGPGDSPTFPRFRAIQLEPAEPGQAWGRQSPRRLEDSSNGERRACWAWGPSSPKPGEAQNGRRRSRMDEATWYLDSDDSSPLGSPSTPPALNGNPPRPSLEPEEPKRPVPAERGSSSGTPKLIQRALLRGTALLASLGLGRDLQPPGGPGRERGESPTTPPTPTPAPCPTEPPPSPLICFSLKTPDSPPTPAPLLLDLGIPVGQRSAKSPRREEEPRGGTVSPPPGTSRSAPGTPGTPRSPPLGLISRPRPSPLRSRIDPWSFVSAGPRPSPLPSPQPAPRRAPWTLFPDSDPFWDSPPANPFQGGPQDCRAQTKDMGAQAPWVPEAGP

| IC50 [µM] | SMILES |
| --- | --- |
| < 0.1 | CN1CCN(Cc2ccc(-c3cnc4[nH]cc(-c5cnc6[nH]ccc6c5)c4c3)cc2)CC1 |
| < 0.1 | c1cn(Cc2ccc(-c3cnc4[nH]cc(-c5ccc6[nH]ccc6c5)c4c3)cc2)cn1 |
